Format in all cases: cell-based
One test relates to A431 (EGFR-WT). Description: Cell proliferation study (CellTiter-Glo, 72 hrs), A431. The following applies: Homo sapiens, A-431, A431 cells, CTG, * = average of multiple measurements. The method in brief: (§1)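 Cells were seeded overnight, then exposed for 72 hrs at 37 °C, 5% CO2 to 9 concentrations in 3.16-fold steps, 0.1% DMSO final, triplicate wells. Viability was read by CellTiter-Glo luminescence, with a T0 plate read at dosing. IC50 came from nonlinear sigmoidal dose-response fits.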

Test [1] addresses Ba/F3 EGFR-V769_D770insASV (Homo sapiens, UniProt P00533, DUP767-769, cells depend on it). Description: Cell proliferation study (CellTiter-Glo, 72 hrs), Ba/F3 EGFR-V769_D770insASV. The following applies: CTG, * = average of multiple measurements, read-out: Ba/F3 EGFR-V769_D770insASV IC50. In outline:
as §1
(ATP-based viability assays read luminescence as a measure of living cells.)

For test [2], the target named is Ba/F3 EGFR-D770-N771ins_SVD (Homo sapiens, UniProt P00533, DUP768-770, cells depend on it). Briefly: Cell proliferation study (CellTiter-Glo, 72 hrs), Ba/F3 EGFR-D770-N771ins_SVD. The following applies: CTG, * = average of multiple measurements, read-out: Ba/F3 EGFR-D770-N771ins_SVD IC50. In outline: as §1
Sequence of Ba/F3 EGFR-D770-N771ins_SVD (P00533 with tags, fused parts or gaps DUP768-770): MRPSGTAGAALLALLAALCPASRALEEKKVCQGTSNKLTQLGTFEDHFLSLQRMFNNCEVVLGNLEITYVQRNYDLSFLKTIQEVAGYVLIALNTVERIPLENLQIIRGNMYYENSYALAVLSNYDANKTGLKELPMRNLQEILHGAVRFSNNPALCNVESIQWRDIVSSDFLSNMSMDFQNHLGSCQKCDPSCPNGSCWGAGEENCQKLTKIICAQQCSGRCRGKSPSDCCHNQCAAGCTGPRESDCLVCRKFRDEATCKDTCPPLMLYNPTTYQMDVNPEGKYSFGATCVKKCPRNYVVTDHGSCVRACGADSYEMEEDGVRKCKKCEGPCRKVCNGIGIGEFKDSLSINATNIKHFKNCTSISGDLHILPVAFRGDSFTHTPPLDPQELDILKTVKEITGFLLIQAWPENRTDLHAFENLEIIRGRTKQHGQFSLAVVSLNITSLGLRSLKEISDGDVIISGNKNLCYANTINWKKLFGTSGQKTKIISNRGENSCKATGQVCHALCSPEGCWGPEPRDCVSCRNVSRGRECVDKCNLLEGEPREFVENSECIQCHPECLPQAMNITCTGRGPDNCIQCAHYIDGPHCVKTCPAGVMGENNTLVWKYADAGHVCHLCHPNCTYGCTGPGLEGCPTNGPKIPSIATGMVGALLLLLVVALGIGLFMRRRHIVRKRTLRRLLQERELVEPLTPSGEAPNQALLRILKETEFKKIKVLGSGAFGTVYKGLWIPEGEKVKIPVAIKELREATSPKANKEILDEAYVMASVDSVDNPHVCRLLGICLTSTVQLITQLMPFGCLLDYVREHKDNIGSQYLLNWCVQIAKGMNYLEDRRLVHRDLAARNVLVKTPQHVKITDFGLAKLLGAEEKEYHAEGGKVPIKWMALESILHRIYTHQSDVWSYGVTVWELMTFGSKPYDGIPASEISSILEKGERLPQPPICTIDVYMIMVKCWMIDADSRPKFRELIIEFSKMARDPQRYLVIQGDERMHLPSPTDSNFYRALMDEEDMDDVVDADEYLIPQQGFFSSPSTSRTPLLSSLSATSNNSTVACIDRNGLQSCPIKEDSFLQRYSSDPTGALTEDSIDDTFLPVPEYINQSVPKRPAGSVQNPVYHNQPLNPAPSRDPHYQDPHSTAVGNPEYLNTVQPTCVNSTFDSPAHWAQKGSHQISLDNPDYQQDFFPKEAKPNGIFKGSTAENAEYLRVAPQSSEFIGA

Sequence of Ba/F3 EGFR-V769_D770insASV (P00533 with tags, fused parts or gaps DUP767-769): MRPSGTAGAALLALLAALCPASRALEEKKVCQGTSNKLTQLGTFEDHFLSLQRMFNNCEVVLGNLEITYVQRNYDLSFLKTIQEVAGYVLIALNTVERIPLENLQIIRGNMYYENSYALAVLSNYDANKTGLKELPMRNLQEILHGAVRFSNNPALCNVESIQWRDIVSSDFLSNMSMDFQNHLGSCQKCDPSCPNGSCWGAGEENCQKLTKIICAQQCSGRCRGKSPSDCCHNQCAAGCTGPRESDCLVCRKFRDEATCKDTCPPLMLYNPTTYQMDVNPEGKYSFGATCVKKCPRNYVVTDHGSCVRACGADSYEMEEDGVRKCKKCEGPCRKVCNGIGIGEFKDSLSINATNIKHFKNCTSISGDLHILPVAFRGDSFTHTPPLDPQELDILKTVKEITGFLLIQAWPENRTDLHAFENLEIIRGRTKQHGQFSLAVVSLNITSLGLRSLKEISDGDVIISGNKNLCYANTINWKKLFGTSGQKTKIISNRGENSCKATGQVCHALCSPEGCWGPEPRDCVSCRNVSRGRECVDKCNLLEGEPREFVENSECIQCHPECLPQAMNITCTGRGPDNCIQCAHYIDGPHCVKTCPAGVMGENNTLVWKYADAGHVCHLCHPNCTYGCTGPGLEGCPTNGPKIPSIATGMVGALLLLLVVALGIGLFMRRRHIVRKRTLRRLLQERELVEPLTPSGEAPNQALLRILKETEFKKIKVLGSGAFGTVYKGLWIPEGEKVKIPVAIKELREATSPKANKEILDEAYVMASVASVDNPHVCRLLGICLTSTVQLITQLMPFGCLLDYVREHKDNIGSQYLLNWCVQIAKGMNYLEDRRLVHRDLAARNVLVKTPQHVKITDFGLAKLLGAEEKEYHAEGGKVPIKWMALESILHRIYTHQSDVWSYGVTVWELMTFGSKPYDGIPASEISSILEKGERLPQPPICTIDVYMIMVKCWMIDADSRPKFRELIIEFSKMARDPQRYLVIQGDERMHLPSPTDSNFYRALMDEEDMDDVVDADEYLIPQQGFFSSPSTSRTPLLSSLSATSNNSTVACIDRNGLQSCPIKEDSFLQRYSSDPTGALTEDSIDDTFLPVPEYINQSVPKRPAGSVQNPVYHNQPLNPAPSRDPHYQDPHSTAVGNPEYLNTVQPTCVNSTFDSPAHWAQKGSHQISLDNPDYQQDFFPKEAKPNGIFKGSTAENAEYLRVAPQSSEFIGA

For orientation: IC50 means the midpoint of a concentration-inhibition curve. A high value points to lower potency. Consider `C=CC(=O)Nc1cc(Nc2ncc(C(=O)OC(C)C)c(N3CC(C)(C)c4nc(C)ccc43)n2)c(OC)cc1N1C[C@@H](F)C[C@@H]1CN(C)C` [Example 63, isopropyl 2-((5-acrylamido-4-((2R,4S)-2-((dimethylamino)methyl)-4-fluoro-pyrrolidin-1-yl)-2-methoxy-phenyl)amino)-4-(3,3,5-trimethyl-2,3-dihydro-1H-pyrrolo[3,2-b]pyridin-1-yl)pyrimidine-5-carboxylate], for which the IC50 in the test on A431 (EGFR-WT) came out at 0.11 µM. For the same compound, the GI50 in test [1] was 0.0183 µM; in test [2] it was 0.0107 µM.
In the test with A431 (EGFR-WT), `C=CC(=O)Nc1cc(Nc2ncc(C(=O)OC(C)C)c(N3CC4(CC4)c4nc(C)ccc43)n2)c(OC)cc1N1C[C@@H](F)C[C@@H]1CN(C)C` [Example 64, isopropyl 2-((5-acrylamido-4-((2R,4S)-2-((di-methylamino)methyl)-4-fluoro-pyrrolidin-1-yl)-2-methoxy-phenyl)amino)-4-(5′-methyl-spiro(cyclopropane-1,3′-pyrrolo[3,2-b]pyridin)-1′(2′H)-yl)pyrimidine-5-carboxylate] returned an IC50 of 0.0397 µM. In addition, the GI50 came out at 0.0123 µM in test [1] and 0.0088 µM in test [2].
In the same order, the values of `C=CC(=O)Nc1cc(Nc2ncc(C(=O)OC(C)C)c(N3CC4(CC4)c4nc(C)ccc43)n2)c(OC)cc1NCCN(C)C` [Example 65, isopropyl 2-((5-acrylamido-4-((2-(dimethylami-no)ethyl)amino)-2-methoxy-phenyl)amino)-4-(5′-methylspiro(cyclo-propane-1,3′-pyrrolo[3,2-b]pyridin)-1′(2′H)-yl)pyrimidine-5-carboxylate] are 0.282 µM, 0.0344 µM and 0.039 µM.
In the same order, the values of `C=CC(=O)Nc1cc(Nc2ncc(C(=O)OC(C)C)c(N3CC(C)(C)c4nc(C)ccc43)n2)c(OC)cc1N(C)CCN1CCC1` [Example 67, isopropyl 2-((5-acrylamido-4-((2-(azetidin-1-yl)ethyl)(methyl)amino)-2-methoxy-phenyl)amino)-4-(3,3,5-trimethyl-2,3-dihydro-1H-pyrrolo[3,2-b]pyridin-1-yl)pyrimidine-5-carboxylate] are 0.515 µM, 0.0371 µM and 0.0239 µM.
The matching figures for `[2H]C([2H])([2H])N(CCN(C)C)c1cc(OC)c(Nc2ncc(C(=O)OC(C)C)c(N3c4ccc(C)nc4C(C)(C)C3([2H])[2H])n2)cc1NC(=O)C=C` [Example 71, isopropyl 2-((5-acrylamido-4-((2-(dimethylami-no)ethyl)(methyl-d3)amino)-2-methoxy-phenyl)amino)-4-(3,3,5-trimethyl-2,3-dihydro-1H-pyrrolo[3,2-b]pyridin-1-yl-2,2-d2)pyrimidine-5-carboxylate]: 0.0655 µM, 0.0304 µM and 0.0148 µM.
Regarding `[2H]C([2H])([2H])Oc1cc(N(CCN(C([2H])([2H])[2H])C([2H])([2H])[2H])C([2H])([2H])[2H])c(NC(=O)C=C)cc1Nc1ncc(C(=O)OC(C)C)c(N2CC(C)(C)c3nc(C)ccc32)n1` [Example 72, isopropyl 2-((5-acrylamido-4-((2-(bis(methyl-d3)amino)ethyl)(methyl-d3)amino)-2-(methoxy-d3)phenyl)amino)-4-(3,3,5-trimethyl-2,3-dihydro-1H-pyrrolo[3,2-b]pyridin-1-yl)pyrimidine-5-carboxylate], the half-maximal inhibitory concentration (IC50) in the test with A431 (EGFR-WT) is 0.12 µM. Also, the values for the GI50 in test [1] and in test [2] were 0.0353 µM and 0.0248 µM, respectively.
As to `[2H]C([2H])([2H])C1(C([2H])([2H])[2H])CN(c2nc(Nc3cc(NC(=O)C=C)c(N(C)CCN(C)C)cc3OC)ncc2C(=O)OC(C)C)c2ccc(C)nc21` [Example 73, isopropyl 2-((5-acrylamido-4-((2-(dimethylami-no)ethyl)(methyl)amino)-2-methoxy-phenyl)amino)-4-(5-methyl-3,3-bis(methyl-d3)-2,3-dihydro-1H-pyrrolo[3,2-b]pyridin-1-yl)pyrimidine-5-carboxylate], in the test on A431 (EGFR-WT), the midpoint of inhibition, the IC50, lay at 0.09 µM. Besides, the GI50 in test [1] was 0.0348 µM; in test [2], 0.0123 µM.
In the same order, the values of `C=CC(=O)Nc1cc(Nc2ncc(C(=O)OC(C)C)c(N3CC(C)(C)c4nc(C#CC)ccc43)n2)c(OC)cc1N1CC[C@@H](N(C)C)C1` [Example 74, isopropyl (R)-2-((5-acrylamido-4-(3-(dimethyl-amino)pyrrolidin-1-yl)-2-methoxy-phenyl)amino)-4-(3,3-dimethyl-5-(prop-1-yn-1-yl)-2,3-dihydro-1H-pyrrolo[3,2-b]pyridin-1-yl)pyrimidine-5-carboxylate] are 0.0993 µM, 0.0436 µM and 0.0155 µM.
In the test with A431 (EGFR-WT), `C=CC(=O)Nc1cc(Nc2ncc(C(=O)OC(C)C)c(N3CC(C)(C)c4nc(C#CC)ccc43)n2)c(OC)cc1N1CC(N(C)C)C1` [Example 76, isopropyl 2-((5-acrylamido-4-(3-(dimethylami-no)azetidin-1-yl)-2-methoxyphenyl)ami-no)-4-(3,3-dimethyl-5-(prop-1-yn-1-yl)-2,3-dihydro-1H-pyrrolo[3,2-b]pyridin-1-yl)pyrimidine-5-carboxylate] registered an IC50 of 1.26 µM. In addition, the GI50 in test [1] came out at 0.0939 µM; in test [2], 0.0309 µM.
Regarding `[2H]C([2H])([2H])N(CCN(C([2H])([2H])[2H])C([2H])([2H])[2H])c1cc(OC)c(Nc2ncc(C(=O)OC(C)C)c(N3CC(C)(C)c4nc(C)ccc43)n2)cc1NC(=O)C=C` [Example 77, isopropyl 2-((5-acrylamido-4-((2-(bis(methyl-d3)amino)ethyl)(methyl-d3)amino)-2-methoxyphenyl)amino)-4-(3,3,5-tri-methyl-2,3-dihydro-1H-pyrrolo[3,2-b]pyridin-1-yl)pyrimidine-5-carboxylate], in the test on A431 (EGFR-WT), half-maximal inhibition (IC50) was put at 0.0972 µM. Moreover, the figures for the GI50 in test [1] and in test [2] were 0.0322 µM and 0.0117 µM, respectively.
The matching figures for `[2H]C([2H])([2H])N(CCN(C([2H])([2H])[2H])C([2H])([2H])[2H])c1cc(OC)c(Nc2ncc(C(=O)OC(C)C)c(N3c4ccc(C)nc4C(C)(C)C3([2H])[2H])n2)cc1NC(=O)C=C` [Example 78, isopropyl 2-((5-acrylamido-4-((2-(bis(methyl-d3)amino)ethyl)(methyl-d3)amino)-2-methoxyphenyl)amino)-4-(3,3,5-tri-methyl-2,3-dihydro-1H-pyrrolo[3,2-b]pyridin-1-yl-2,2-d2)pyrimidine-5-carboxylate]: 0.072 µM, 0.0364 µM and 0.0123 µM.
In the same order, the values of `C=CC(=O)Nc1cc(Nc2ncc(C(=O)OC(C)C)c(N3CC(C)(C)c4nc(C#CC)ccc43)n2)c(OC)cc1N1CCC[C@@H]1CN(C)C` [Example 79, isopropyl (R)-2-((5-acrylamido-4-(2-((dimethyl-amino)methyl)pyrrolidin-1-yl)-2-meth-oxyphenyl)amino)-4-(3,3-dimethyl-5-(prop-1-yn-1-yl)-2,3-dihydro-1H-pyrrolo[3,2-b]pyridin-1-yl)pyrimidine-5-carboxylate] are 0.252 µM, 0.0582 µM and 0.0202 µM.
In the same order, the values of `C=CC(=O)Nc1cc(Nc2ncc(C(=O)OC(C)C)c(N3CC(C)(C)c4nc(C)ccc43)n2)c(OC(F)F)cc1N(C)CCN(C)C` [Example 81, isopropyl 2-((5-acrylamido-2-(difluoromethoxy)-4-((2-(dimethylamino)eth-yl)(methyl)amino)phenyl)amino)-4-(3,3,5-trimethyl-2,3-dihydro-1H-pyrrolo[3,2-b]pyridin-1-yl)pyrimidine-5-carboxylate] are 0.128 µM, 0.0293 µM and 0.009 µM.
For the compound `[2H]C1([2H])N(c2nc(Nc3cc(NC(=O)C=C)c(N4C[C@@H](F)C[C@@H]4CN(C)C)cc3OC)ncc2C(=O)OC(C)C)c2ccc(C)nc2C1(C)C` [Example 82, isopropyl 2-((5-acrylamido-4-((2R,4S)-2-((di-methylamino)methyl)-4-fluoro-pyrrolidin-1-yl)-2-methoxy-phenyl)amino)-4-(3,3,5-trimethyl-2,3-dihydro-1H-pyrrolo[3,2-b]pyridin-1-yl-2,2-d2)pyrimidine-5-carboxylate], the IC50 with A431 (EGFR-WT) was determined as 0.076 µM. Moreover, the GI50 came to 0.0129 µM in test [1] and 0.0112 µM in test [2].
In the same order, the values of `C=CC(=O)Nc1cc(Nc2ncc(C(=O)OC(C)C)c(N3CC(C)(C)c4nc(C)ccc43)n2)c(OC)cc1N1CCC[C@@H]1CN(C)C` [Example 83, isopropyl (R)-2-((5-acrylamido-4-(2-((dimethyl-amino)methyl)pyrrolidin-1-yl)-2-meth-oxyphenyl)amino)-4-(3,3,5-trimethyl-2,3-dihydro-1H-pyrrolo[3,2-b]pyridin-1-yl)pyrimidine-5-carboxylate] are 0.057 µM, 0.0136 µM and 0.0109 µM.
In the same order, the values of `C=CC(=O)Nc1cc(Nc2ncc(C(=O)OC(C)C)c(N3CC(C)(C)c4nc(C#CC)ccc43)n2)c(OC)cc1N1C[C@@H](F)C[C@@H]1CN(C)C` [Example 84, isopropyl 2-((5-acrylamido-4-((2R,4S)-2-((di-methylamino)methyl)-4-fluoro-pyrrolidin-1-yl)-2-methoxy-phenyl)amino)-4-(3,3-dimethyl-5-(prop-1-yn-1-yl)-2,3-dihydro-1H-pyrrolo[3,2-b]pyridin-1-yl)pyrimidine-5-carboxylate] are 0.22 µM, 0.0126 µM and 0.012 µM.

(Values after US12692264B2, “Pyrimidine or pyridine derivative, preparation method therefor, and application thereof in pharmacy” (ABBISKO THERAPEUTICS CO., LTD., priority 2021, dated 2026).)
